Experimental data as given in US12077503B2, “Substituted cyclic amides and their use as herbicides” (FMC CORPORATION, priority 2015, dated 2024).

Legend:
Test in all cases: Test C preemergence
Assay type in all cases: in vivo
Settings in all cases: scale 0 to 100, 0 no effect, 100 complete control
[1] = tested on: Galium (catchweed bedstraw, Galium aparine)
Outline: (§1)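 Scores of 0 to 100 reflect visual comparison with control plants, where 0 means no effect and 100 complete control, made 13 to 15 d after treatment. Application was preemergence to seeds in loam-sand soil or postemergence to plants 2 to 18 cm tall in peat-based mix, using a surfactant-containing solvent formulation.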

[2] = tested on: barnyardgrass (Echinochloa crus-galli)
Outline: as §1

[3] = tested on: blackgrass (Alopecurus myosuroides)
Outline: as §1

corn (Zea mays) = tested on: corn (Zea mays)
Outline: as §1

[4] = tested on: crabgrass, large (large crabgrass, Digitaria sanguinalis)
Outline: as §1

[5] = tested on: johnsongrass (Sorghum halepense)
Outline: as §1

[6] = tested on: lambsquarters (Chenopodium album)
Outline: as §1

[7] = tested on: morningglory (Ipomoea coccinea)
Outline: as §1

[8] = tested on: nutsedge, yellow (yellow nutsedge, Cyperus esculentus)
Outline: as §1

[9] = tested on: oilseed rape (Brassica napus)
Outline: as §1

[10] = tested on: pigweed (Amaranthus retroflexus)
Outline: as §1

[11] = tested on: ryegrass, Italian (Italian ryegrass, Lolium multiflorum)
Outline: as §1

soybean (Glycine max) = tested on: soybean (Glycine max)
Outline: as §1

[12] = tested on: velvetleaf (Abutilon theophrasti)
Outline: as §1

[13] = tested on: waterhemp (common waterhemp, Amaranthus rudis)
Outline: as §1

[14] = tested on: wheat (winter wheat, Triticum aestivum)
Outline: as §1

## CN1CC(c2cccc(OC(F)(F)C(F)F)c2)C(C(=O)Nc2ccc(F)c(F)c2F)C1=O (stereo not shown) [Compound 429]
[1]; 31 g ai/ha
  Plant response rating, Galium: 100
[1]; 62 g ai/ha
  Plant response rating, Galium: 100
[1]; 125 g ai/ha
  Plant response rating, Galium: 100
[1]; 250 g ai/ha
  Plant response rating, Galium: 100
[2]; 31 g ai/ha
  Plant response rating, Barnyardgrass: 85
[2]; 62 g ai/ha
  Plant response rating, Barnyardgrass: 95
[2]; 125 g ai/ha
  Plant response rating, Barnyardgrass: 95
[2]; 250 g ai/ha
  Plant response rating, Barnyardgrass: 98
[3]; 31 g ai/ha
  Plant response rating, Blackgrass: 70
[3]; 62 g ai/ha
  Plant response rating, Blackgrass: 90
[3]; 125 g ai/ha
  Plant response rating, Blackgrass: 90
[3]; 250 g ai/ha
  Plant response rating, Blackgrass: 95
Corn (Zea mays); 31 g ai/ha
  Plant response rating, Corn: 0
Corn (Zea mays); 62 g ai/ha
  Plant response rating, Corn: 40
Corn (Zea mays); 125 g ai/ha
  Plant response rating, Corn: 65
Corn (Zea mays); 250 g ai/ha
  Plant response rating, Corn: 90
[4]; 31 g ai/ha
  Plant response rating, Crabgrass, Large: 95
[4]; 62 g ai/ha
  Plant response rating, Crabgrass, Large: 98
[4]; 125 g ai/ha
  Plant response rating, Crabgrass, Large: 98
[4]; 250 g ai/ha
  Plant response rating, Crabgrass, Large: 98
[5]; 31 g ai/ha
  Plant response rating, Johnsongrass: 75
[5]; 62 g ai/ha
  Plant response rating, Johnsongrass: 95
[5]; 125 g ai/ha
  Plant response rating, Johnsongrass: 95
[5]; 250 g ai/ha
  Plant response rating, Johnsongrass: 90
[6]; 31 g ai/ha
  Plant response rating, Lambsquarters: 60
[6]; 62 g ai/ha
  Plant response rating, Lambsquarters: 75
[6]; 125 g ai/ha
  Plant response rating, Lambsquarters: 75
[6]; 250 g ai/ha
  Plant response rating, Lambsquarters: 85
[7]; 31 g ai/ha
  Plant response rating, Morningglory: 35
[7]; 62 g ai/ha
  Plant response rating, Morningglory: 30
[7]; 125 g ai/ha
  Plant response rating, Morningglory: 20
[7]; 250 g ai/ha
  Plant response rating, Morningglory: 60
[8]; 31 g ai/ha
  Plant response rating, Nutsedge, Yellow: 0
[8]; 62 g ai/ha
  Plant response rating, Nutsedge, Yellow: 0
[8]; 125 g ai/ha
  Plant response rating, Nutsedge, Yellow: 0
[8]; 250 g ai/ha
  Plant response rating, Nutsedge, Yellow: 0
[9]; 31 g ai/ha
  Plant response rating, Oilseed Rape: 80
[9]; 62 g ai/ha
  Plant response rating, Oilseed Rape: 80
[9]; 125 g ai/ha
  Plant response rating, Oilseed Rape: 90
[9]; 250 g ai/ha
  Plant response rating, Oilseed Rape: 90
[10]; 31 g ai/ha
  Plant response rating, Pigweed: 75
[10]; 62 g ai/ha
  Plant response rating, Pigweed: 85
[10]; 125 g ai/ha
  Plant response rating, Pigweed: 90
[10]; 250 g ai/ha
  Plant response rating, Pigweed: 100
[11]; 62 g ai/ha
  Plant response rating, Ryegrass, Italian: 85
[11]; 125 g ai/ha
  Plant response rating, Ryegrass, Italian: 85
[11]; 250 g ai/ha
  Plant response rating, Ryegrass, Italian: 65
Soybean (Glycine max); 125 g ai/ha
  Plant response rating, Soybean: 0
Soybean (Glycine max); 250 g ai/ha
  Plant response rating, Soybean: 10
[12]; 62 g ai/ha
  Plant response rating, Velvetleaf: 40
[12]; 125 g ai/ha
  Plant response rating, Velvetleaf: 30
[12]; 250 g ai/ha
  Plant response rating, Velvetleaf: 45
[13]; 62 g ai/ha
  Plant response rating, Waterhemp: 85
[13]; 125 g ai/ha
  Plant response rating, Waterhemp: 90
[13]; 250 g ai/ha
  Plant response rating, Waterhemp: 90
[14]; 62 g ai/ha
  Plant response rating, Wheat: 60
[14]; 125 g ai/ha
  Plant response rating, Wheat: 70
[14]; 250 g ai/ha
  Plant response rating, Wheat: 60
